Assay results taken from ChEMBL document CHEMBL5244273, “Tuberculosis: An Overview of the Immunogenic Response, Disease Progression, and Medicinal Chemistry Efforts in the Last Decade toward the Development of Potential Drugs for Extensively Drug-Resistant Tuberculosis Strains” (J Med Chem, 2021).
Converted amounts (≈) assume the structure as drawn.

Columns and labels:
Type in all cases: functional
[1] = system: Mycobacterium tuberculosis; test: Antitubercular activity against multidrug resistant Mycobacterium tuberculosis H37Rv assessed as inhibition of bacterial growth by alamar blue assay
[2] = system: Mycobacterium tuberculosis; test: Antitubercular activity against extensively drug resistant Mycobacterium tuberculosis H37Rv assessed as inhibition of bacterial growth by alamar blue assay
[3] = system: Mycobacterium tuberculosis; test: Antitubercular activity against multidrug resistant Mycobacterium tuberculosis clinical isolate 1 by resazurin microtitre assay
[4] = system: Mycobacterium tuberculosis; test: Antitubercular activity against multidrug resistant Mycobacterium tuberculosis clinical isolate 2 by resazurin microtitre assay
[5] = system: Mycobacterium tuberculosis; test: Antitubercular activity against multidrug resistant Mycobacterium tuberculosis clinical isolate 3 by resazurin microtitre assay
[6] = system: Mycobacterium tuberculosis; test: Antitubercular activity against multidrug resistant Mycobacterium tuberculosis clinical isolate 4 by resazurin microtitre assay
[7] = system: Mycobacterium tuberculosis; test: Antitubercular activity against multidrug resistant Mycobacterium tuberculosis clinical isolate 5 by resazurin microtitre assay
[8] = system: Mycobacterium tuberculosis; test: Antitubercular activity against multidrug resistant Mycobacterium tuberculosis clinical isolate 6 by resazurin microtitre assay
[9] = system: Mycobacterium tuberculosis; test: Antitubercular activity against multidrug resistant Mycobacterium tuberculosis clinical isolate 7 by resazurin microtitre assay
[10] = system: Mycobacterium tuberculosis; test: Antitubercular activity against multidrug resistant Mycobacterium tuberculosis clinical isolate 8 by resazurin microtitre assay
[11] = system: Mycobacterium tuberculosis; test: Antitubercular activity against multidrug resistant Mycobacterium tuberculosis clinical isolate 9 by resazurin microtitre assay
[12] = system: Mycobacterium tuberculosis; test: Antitubercular activity against multidrug resistant Mycobacterium tuberculosis clinical isolate 10 by resazurin microtitre assay
[13] = system: Mycobacterium tuberculosis; test: Antitubercular activity against multidrug resistant Mycobacterium tuberculosis clinical isolate 11 by resazurin microtitre assay
[14] = system: Mycobacterium tuberculosis; test: Antitubercular activity against extensively drug resistant Mycobacterium tuberculosis KMRC 0 0203-0 0197 by resazurin microtitre assay
[15] = system: Mycobacterium tuberculosis; test: Antitubercular activity against extensively drug resistant Mycobacterium tuberculosis clinical isolate 1 by resazurin microtitre assay
[16] = system: Mycobacterium tuberculosis; test: Antitubercular activity against extensively drug resistant Mycobacterium tuberculosis clinical isolate 2 by resazurin microtitre assay
[17] = system: Mycobacterium tuberculosis; test: Antitubercular activity against extensively drug resistant Mycobacterium tuberculosis clinical isolate 3 by resazurin microtitre assay
[18] = system: Mycobacterium tuberculosis; test: Antitubercular activity against extensively drug resistant Mycobacterium tuberculosis clinical isolate 4 by resazurin microtitre assay
[19] = system: Mycobacterium tuberculosis; test: Antitubercular activity against extensively drug resistant Mycobacterium tuberculosis clinical isolate 5 by resazurin microtitre assay
[20] = system: Mycobacterium tuberculosis; test: Antitubercular activity against extensively drug resistant Mycobacterium tuberculosis clinical isolate 6 by resazurin microtitre assay
[21] = system: Mycobacterium tuberculosis; test: Antitubercular activity against extensively drug resistant Mycobacterium tuberculosis clinical isolate 7 by resazurin microtitre assay
[22] = system: Mycobacterium tuberculosis; test: Antitubercular activity against extensively drug resistant Mycobacterium tuberculosis clinical isolate 8 by resazurin microtitre assay
[23] = system: Mycobacterium tuberculosis; test: Antitubercular activity against extensively drug resistant Mycobacterium tuberculosis clinical isolate 9 by resazurin microtitre assay
[24] = system: Mycobacterium tuberculosis; test: Antitubercular activity against extensively drug resistant Mycobacterium tuberculosis clinical isolate 10 by resazurin microtitre assay
[25] = system: Mycobacterium tuberculosis; test: Antitubercular activity against extensively drug resistant Mycobacterium tuberculosis clinical isolate 11 by resazurin microtitre assay
[26] = system: Mycobacterium tuberculosis; test: Antimycobacterial activity against isoniazid, streptomycin, ethambutol and ethionamide resistant Mycobacterium tuberculosis clinical isolate A
[27] = system: Mycobacterium tuberculosis; test: Antimycobacterial activity against isoniazid and ethionamide resistant Mycobacterium tuberculosis clinical isolate B
[28] = system: Mycobacterium tuberculosis; test: Antimycobacterial activity against isoniazid, streptomycin, and rifampicin resistant Mycobacterium tuberculosis clinical isolate C
[29] = system: Mycobacterium tuberculosis; test: Antimycobacterial activity against isoniazid and rifampicin resistant Mycobacterium tuberculosis clinical isolate D
[30] = system: Mycobacterium tuberculosis; test: Antimycobacterial activity against isoniazid and ethionamide resistant Mycobacterium tuberculosis clinical isolate E
[31] = system: Mycobacterium tuberculosis; test: Antimycobacterial activity against isoniazid, streptomycin and ethionamide resistant Mycobacterium tuberculosis clinical isolate F
[32] = system: Mycobacterium tuberculosis; test: Antimycobacterial activity against isoniazid, streptomycin, rifampicin, ethambutol and ethionamide resistant Mycobacterium tuberculosis clinical isolate G
[33] = system: Mycobacterium tuberculosis; test: Antimycobacterial activity against isoniazid, streptomycin, rifampicin, ethambutol, ethionamide and ofloxacin resistant Mycobacterium tuberculosis clinical isolate H
[34] = system: Mycobacterium tuberculosis; test: Antimycobacterial activity against Mycobacterium tuberculosis clinical isolate 199-00 harboring gyrA QRDR c270t (A90V) mutant and wild type gyrB
[35] = system: Mycobacterium tuberculosis; test: Antimycobacterial activity against Mycobacterium tuberculosis clinical isolate 581-17 harboring gyrA QRDR c270t (A90V) mutant and wild type gyrB
[36] = system: Mycobacterium tuberculosis; test: Antimycobacterial activity against Mycobacterium tuberculosis clinical isolate 410-11 harboring wild type and wild type gyrB
[37] = system: Mycobacterium tuberculosis; test: Antimycobacterial activity against Mycobacterium tuberculosis clinical isolate 742-0 harboring gyrA QRDR a282g (D94G) mutant and wild type gyrB
[38] = system: Mycobacterium tuberculosis; test: Antimycobacterial activity against Mycobacterium tuberculosis clinical isolate 666-0 harboring wild type gyrA and wild type gyrB
[39] = system: Mycobacterium tuberculosis; test: Antimycobacterial activity against Mycobacterium tuberculosis clinical isolate 383-0 harboring wild type gyrA and wild type gyrB
[40] = system: Mycobacterium tuberculosis; test: Antimycobacterial activity against Mycobacterium tuberculosis clinical isolate 152-0 harboring wild type gyrA and wild type gyrB
[41] = system: Mycobacterium tuberculosis; test: Antimycobacterial activity against Mycobacterium tuberculosis clinical isolate 427-18 harboring gyrA QRDR c270t (A90V) mutant and wild type gyrB
[42] = system: Mycobacterium tuberculosis; test: Antimycobacterial activity against Mycobacterium tuberculosis clinical isolate 775-0 harboring gyrA QRDR c270t (A90V) mutant and wild type gyrB
[43] = system: Mycobacterium tuberculosis; test: Antimycobacterial activity against Mycobacterium tuberculosis clinical isolate 124-0 harboring wild type gyrA and wild type gyrB
[44] = system: Mycobacterium tuberculosis; test: Antimycobacterial activity against Mycobacterium tuberculosis H37Rv harboring wild type gyrA and wild type gyrB
[45] = system: Mycobacterium tuberculosis; test: Antimycobacterial activity against multidrug-resistant Mycobacterium tuberculosis H37Rv assessed as inhibition of bacterial growth by alamar blue assay
[46] = system: Mycobacterium tuberculosis; test: Antimycobacterial activity against extensively-resistant Mycobacterium tuberculosis H37Rv assessed as inhibition of bacterial growth by alamar blue assay
[47] = system: Mycobacterium tuberculosis; test: Antimycobacterial activity against isoniazid resistant Mycobacterium tuberculosis clinical isolate incubated for 7 days by resazurin microtitre assay; settings: 168 h, time 7 day
[48] = system: Mycobacterium tuberculosis; test: Antimycobacterial activity against isoniazid, rifampicin, ethambutol, pyrazinamide, capreomycin, and ethionamide resistant Mycobacterium tuberculosis clinical isolate incubated for 7 days by resazurin microtitre assay; settings: 168 h, time 7 day
[49] = system: Mycobacterium tuberculosis; test: Antimycobacterial activity against isoniazid, rifampicin, ethambutol, pyrazinamide, streptomycin, capreomycin, amikacin, kanamycin, ofloxacin, and ethionamide resistant Mycobacterium tuberculosis clinical isolate incubated for 7 days by resazurin microtitre assay; settings: 168 h, time 7 day

SMILES: O=C(Cc1ccccc1F)NNC(=O)c1ccncc1
- MIC [1]: 62.5 µg/mL (≈ 229 µM)
- MIC [2]: 250 µg/mL (≈ 915 µM)

SMILES: CCN(CC)CCOc1c(C(=O)OC)c2c3c(oc2c2ccccc12)C(=O)c1ccccc1C3=O
- MIC [3]: 0.19 µg/mL (≈ 0.403 µM)
- MIC [4]: 0.02 µg/mL (≈ 0.0424 µM)
- MIC [5]: 0.19 µg/mL (≈ 0.403 µM)
- MIC [6]: 0.19 µg/mL (≈ 0.403 µM)
- MIC [7]: 0.19 µg/mL (≈ 0.403 µM)
- MIC [8]: 0.02 µg/mL (≈ 0.0424 µM)
- MIC [9]: 0.02 µg/mL (≈ 0.0424 µM)
- MIC [10]: 0.39 µg/mL (≈ 0.827 µM)
- MIC [11]: 0.02 µg/mL (≈ 0.0424 µM)
- MIC [12]: 0.02 µg/mL (≈ 0.0424 µM)
- MIC [13]: 0.39 µg/mL (≈ 0.827 µM)
- MIC50 [14]: 0.19 µg/mL (≈ 0.403 µM)
- MIC [15]: 0.02 µg/mL (≈ 0.0424 µM)
- MIC [16]: 0.02 µg/mL (≈ 0.0424 µM)
- MIC [17]: 0.19 µg/mL (≈ 0.403 µM)
- MIC [18]: 0.19 µg/mL (≈ 0.403 µM)
- MIC [19]: 0.19 µg/mL (≈ 0.403 µM)
- MIC [20]: 0.19 µg/mL (≈ 0.403 µM)
- MIC [21]: 0.19 µg/mL (≈ 0.403 µM)
- MIC [22]: 0.19 µg/mL (≈ 0.403 µM)
- MIC [23]: 0.19 µg/mL (≈ 0.403 µM)
- MIC [24]: 0.02 µg/mL (≈ 0.0424 µM)
- MIC [25]: 0.19 µg/mL (≈ 0.403 µM)

SMILES: Oc1ccc(-c2nnc(S)o2)cc1
- MIC [26]: > 32 µg/mL
- MIC [27]: 8 µg/mL (≈ 41.2 µM)
- MIC [28]: 16 µg/mL (≈ 82.4 µM)
- MIC [29]: > 32 µg/mL
- MIC [30]: 16 µg/mL (≈ 82.4 µM)
- MIC [31]: 8 µg/mL (≈ 41.2 µM)
- MIC [32]: > 32 µg/mL
- MIC [33]: 2 µg/mL (≈ 10.3 µM)

SMILES: CC(C)(C)n1cc(C(=O)O)c(=O)c2cc(F)c(-c3cccnc3)cc21
- MIC [34]: 4 µg/mL (≈ 11.8 µM)
- MIC [35]: 2 µg/mL (≈ 5.88 µM)
- MIC [36]: 4 µg/mL (≈ 11.8 µM)
- MIC [37]: 32 µg/mL (≈ 94 µM)
- MIC [38]: 4 µg/mL (≈ 11.8 µM)
- MIC [39]: 2 µg/mL (≈ 5.88 µM)
- MIC [40]: 4 µg/mL (≈ 11.8 µM)
- MIC [41]: 1 µg/mL (≈ 2.94 µM)
- MIC [42]: 2 µg/mL (≈ 5.88 µM)
- MIC [43]: 1 µg/mL (≈ 2.94 µM)
- MIC [44]: 0.5 µg/mL (≈ 1.47 µM)

SMILES: CC(C)(C)n1cc(C(=O)O)c(=O)c2cc(F)c(-c3ccc(O)cc3)cc21
- MIC [34]: 2 µg/mL (≈ 5.63 µM)
- MIC [35]: 8 µg/mL (≈ 22.5 µM)
- MIC [36]: 2 µg/mL (≈ 5.63 µM)
- MIC [37]: 2 µg/mL (≈ 5.63 µM)
- MIC [38]: 2 µg/mL (≈ 5.63 µM)
- MIC [39]: 2 µg/mL (≈ 5.63 µM)
- MIC [40]: 2 µg/mL (≈ 5.63 µM)
- MIC [41]: 1 µg/mL (≈ 2.81 µM)
- MIC [42]: 2 µg/mL (≈ 5.63 µM)
- MIC [43]: 1 µg/mL (≈ 2.81 µM)
- MIC [44]: 1 µg/mL (≈ 2.81 µM)

SMILES: Cc1cc(O)n2nc(Nc3ccc(Cl)c(Cl)c3)c(C(N)=O)c2n1
- MIC [45]: 12.5 µg/mL (≈ 35.5 µM)
- MIC [46]: 50 µg/mL (≈ 142 µM)

SMILES: Cc1ccc(NC(=O)c2c(Nc3ccc(Cl)cc3)nn3c(O)cc(C)nc23)cc1
- MIC [45]: 6.25 µg/mL (≈ 15.3 µM)
- MIC [46]: > 100 µg/mL

SMILES: CC(=O)N1/C(=C/c2ccc(-c3ccc(C)cc3)cc2)C(=O)c2ccccc21
- MIC [47]: 17.7 µM (≈ 6.26 µg/mL)
- MIC [48]: 17.7 µM (≈ 6.26 µg/mL)
- MIC [49]: 17.7 µM (≈ 6.26 µg/mL)

SMILES: CC(=O)N1/C(=C/c2ccc(-c3ccccc3)cc2)C(=O)c2ccccc21
- MIC [47]: 12.3 µM (≈ 4.17 µg/mL)
- MIC [48]: 12.3 µM (≈ 4.17 µg/mL)
- MIC [49]: 12.3 µM (≈ 4.17 µg/mL)
